Tested on: AMPA receptors
Experiment: AMPA ES cell FLIPR screen (AMPA Potentiator Assay)
Format: cell-based
Conditions: murine ES cell-derived neurons, FLIPR Fluo-4 calcium signal, 32 uM AMPA challenge; values marked * are the geometric mean of 2-9 EC50 determinations
Description: The murine ES cell line used was E14-Sx1-16C, which has a targeted mutation in the Sox1 gene, a neuroectodermal marker, that offers G418 resistance when the Sox1 gene is expressed (Stem Cell Sciences). ES cells were maintained undifferentiated as previously described (Roach). […] ES cells were plated on gelatin-coated dishes (BD Biosciences), the media was changed daily and the cells were dissociated with 0.05% Trypsin EDTA (Invitrogen) every other day.
Embryoid Body Formation: Prior to embryoid body (EB) formation the ES cells were weaned from FBS onto Knockout Serum Replacement (KSR) (Invitrogen). To form EBs, ES cells were dissociated into a single cell suspension, then 3×10^6 cells were plated in bacteriology dishes (Nunc 4014) and grown as a suspension culture in NeuroEB-I medium that consisted of Knockout™ D-MEM (Invitrogen), supplemented with 10% KSR (Invitrogen), 0.2 mM L-Glutamine (Invitrogen), 0.1 mM MEM non-essential amino acids (Invitrogen), 30 μg/ml Gentamicin (Invitrogen), 1000 u/ml ESGRO (Chemicon), 0.1 mM 2-Mercaptoethanl (Sigma) and 150 ng/ml Transferrin (Invitrogen). The plates were put on a Stovall Belly Button shaker in an atmospheric oxygen incubator. The media was changed on day 2 of EB formation with NeuroEB-I and on day 4 with NeuroEB-II (NeuroEB-I plus 1 μg/ml mNoggin [R&D Systems]).
Neuronal Precursor Selection and Expansion: On day 5 of EB formation, EBs were dissociated with 0.05% Trypsin EDTA, and 4×10^6cells/100 mm dish were plated on Laminin coated tissue culture dishes in Neuroll-G418 medium that consisted of a base medium of a 1:1 mixture of D-MEM/F12 supplemented with N2 supplements and NeuroBasal Medium supplemented with B27 supplement and 0.1 mM L-Glutamine (all from Invitrogen). The base medium was then supplemented with 10 ng/ml bFGF (Invitrogen), 1 μg/ml mNoggin, 500 ng/ml SHH—N, 100 ng/ml FGF-8b (R&D Systems), 1 μg/ml Laminin and 200 μg/ml G418 (Invitrogen) for selection of neuronal precursors expressing Sox-1. The plates were put in an incubator that contained 2% Oxygen and were maintained in these conditions. During the 6-day selection period, the Neuroll media was changed daily. On day 6, the surviving neuronal precursor foci were dissociated with 0.05% Trypsin EDTA and the cells were plated at a density of 1.5×10^6 cells/100 mm Laminin coated dish in Neuroll-G418 medium. The cells were dissociated every other day for expansion, and prepared for Cryopreservation at passage 3 or 4. The crypreservation medium contained 50% KSR, 10% Dimethyl Sulfoxide (DMSO) (Sigma) and 40% Neurol-G418I medium. Neuronal precursors were crypreserved at a concentration of 4×10^6 cells/ml and 1 ml/cryovial in a controlled rate freezer overnight then transferred to an ultra-low freezer or liquid nitrogen for long-term storage.
Neuronal Differentiation: Cryopreserved ES cell-derived neuronal precursors were thawed by the rapid thaw method in a 37-degree water-bath. The cells were transferred from the cryovial to a 100 mm Laminin coated tissue culture dish that already contained Neuroll-G418 that had been equilibrated in a 2% Oxygen incubator. The media was changed with fresh Neuroll-G418 the next day. The cells were dissociated every other day as described above for expansion to generate enough cells to plate for the screen. For the screen, the cells were plated into 384-well poly-d-lysine coated tissue culture dishes (BD Biosciences) by the automated SelecT at a cell density of 6K cells/well in differentiation medium Neurolll that contained a 4:1 ratio of the NeuroBasalMedium/B27:D-MEM/F12/N2 supplemented with 1 μM cAMP (Sigma), 200 μM Ascorbic Acid (Sigma), 1 μg/ml Laminin (Invitrogen) and 10 ng/ml BDNF (R&D Systems). The plates were put in an incubator with 2% Oxygen and allowed to complete the differentiation process for 7 days. The cells could then be used over a 5-day period for the high throughput screen.
On the day of the assay, the FLIPR assay may be performed using the following methods: […]

Row | EC50 [µM] | SMILES
1 | 4.3 | CC(C)S(=O)(=O)N[C@H]1COCC[C@@]1(O)c1ccc(-c2ccccc2)cc1 [Example 3, N-[(3S,4R)-4-biphenyl-4-yl-4-hydroxytetrahydro-2H-pyran-3-yl]propane-2-sulfonamide]
2 | > 31.6 | CC(C)S(=O)(=O)N[C@@H]1COCC[C@]1(O)c1ccc(-c2ccccc2)cc1 [Example 4, N-[(3R,4S)-4-biphenyl-4-yl-4-hydroxytetrahydro-2H-pyran-3-yl]propane-2-sulfonamide]

From patent US20110172297A1, “Oxopiperdinyl And Pyranyl Sulfonamides and Pharmaceutical Compositions Thereof” (Pfizer Inc, priority 2008, published 2011)
